The values below come from paper PMC5603603, “Linoleic and palmitoleic acid block streptokinase-mediated plasminogen activation and reduce severity of invasive group A streptococcal infection” (Scientific Reports, 2017).

Like-named read-outs stand apart in the source and are kept apart here. Where only a bound is given, the exact number is not on record here.

Assay [1] addresses T1, cluster 2a type streptokinase (Streptococcus pyogenes, UniProt A0A288R465). Set-up: species or system group A streptococcal strain A614. Particulars: cell-based, cluster 2a. On the procedure: The pellet from a mid-log phase culture of the strain A614 (cluster 2a type) or A314 (cluster 2b type) was washed twice with PBS and bacteria were adjusted to an OD600 of 1.0 in HEPES-buffer (10 mM HEPES, 150 mM NaCl, 0.01% Tween 20, pH 7.4). 90 µl of bacterial cells, plasminogen (final concentration 6.7 µg/ml per well) and fibrinogen (final concentration 1 µM per well) were pre-mixed. Then inhibitory compounds (LA, PA, oleic, myristic, stearic, palmitic, arachidonic, arachidic, linolenic acid, TXA or EACA) were added. Stocks of LA and PA were prepared in methanol and then diluted in PBS. Stocks of arachidic, oleic, arachidonic, myristic, palmitic, stearic and linolenic acid were prepared in 60% DMSO/PBS and then diluted in PBS. The untreated control received the same amount of PBS as in case of TXA and EACA as control or the same amount of methanol diluted in PBS as in case of LA and PA, respectively, or the same amount of DMSO diluted in PBS as in case of the other commercially available fatty acids. Then 50 µl of the respective supernatant (supernatant from the strain A614 if cells from A614 were used, supernatant from the strain A314 were used in case of cells from the GAS strain A314) and 3.75 µl 10 mM S-2251 (Chromogenix) were added. The assay was incubated at 37 °C and measured at the beginning of the reaction and then every hour at 405 nm after 3 sec of shaking on a Tecan Sunrise ELISAReader using Magellan software. Each experiment was repeated three times. IC50 values were calculated using Microsoft® Excel software.

Assay [2] addresses cluster 1 type streptokinase (Streptococcus pyogenes, UniProt P10520). It counts as biochemical, group A streptococcal strain A328. Particulars: supernatant-based, cluster 1; for effect on plasminogen activation: concentrations up to 100 µg/ml (around 320–437 µM). The method, then: An overnight culture of the strain A328 (cluster 1 type) or A614 (cluster 2a type) was diluted 1:10 in pre-warmed THY medium and grown to an OD600 of around 0.5 at 37 °C. […] The pellet was resuspended in Tris-HCl buffer (50 mM Tris pH 7.5). Then inhibitory compounds (LA, PA, oleic, myristic, stearic, palmitic, arachidonic, arachidic, linolenic acid, TXA or EACA) were added. Stocks of TXA and EACA were prepared in PBS. Stocks of LA and PA were prepared in methanol and then diluted in PBS. Stocks of arachidic, oleic, arachidonic, myristic, palmitic, stearic and linolenic acid were prepared in 60% DMSO/PBS and then diluted in PBS. The untreated control received the same amount of PBS as in case of TXA and EACA as control or the same amount of methanol diluted in PBS as in case of LA and PA, respectively, or the same amount of DMSO diluted in PBS as in case of the other commercially available fatty acids. […] The assay was run at 37 °C. The absorption was measured at the beginning of the reaction and then every hour at 405 nm after 3 sec of shaking on a Tecan Sunrise ELISAReader using Magellan software. Each experiment was repeated three times. IC50 values were calculated using Microsoft® Excel software.

Assay [3] has as its target cluster 2b type streptokinase (Streptococcus pyogenes, UniProt P10520). Set-up: species or system group A streptococcal strain A314. The conditions noted are these: cell-based, cluster 2b; for effect on plasminogen activation: concentrations up to 100 µg/ml (around 320–437 µM). The method, then: Then inhibitory compounds (LA, PA, oleic, myristic, stearic, palmitic, arachidonic, arachidic, linolenic acid, TXA or EACA) were added. Stocks of LA and PA were prepared in methanol and then diluted in PBS. Stocks of arachidic, oleic, arachidonic, myristic, palmitic, stearic and linolenic acid were prepared in 60% DMSO/PBS and then diluted in PBS. The untreated control received the same amount of PBS as in case of TXA and EACA as control or the same amount of methanol diluted in PBS as in case of LA and PA, respectively, or the same amount of DMSO diluted in PBS as in case of the other commercially available fatty acids. […] The assay was incubated at 37 °C and measured at the beginning of the reaction and then every hour at 405 nm after 3 sec of shaking on a Tecan Sunrise ELISAReader using Magellan software. Each experiment was repeated three times. IC50 values were calculated using Microsoft® Excel software.

The target in assay [4] is T1, cluster 2a type streptokinase. The experiment in a line: biochemical. It counts as biochemical, group A streptococcal strain A614. Particulars: for IC50: supernatant-based, cluster 2a.
Where [5] appears, read: read-out: inhibition of plasminogen activation.

Sequence of cluster 1 type streptokinase (P00747 20-810): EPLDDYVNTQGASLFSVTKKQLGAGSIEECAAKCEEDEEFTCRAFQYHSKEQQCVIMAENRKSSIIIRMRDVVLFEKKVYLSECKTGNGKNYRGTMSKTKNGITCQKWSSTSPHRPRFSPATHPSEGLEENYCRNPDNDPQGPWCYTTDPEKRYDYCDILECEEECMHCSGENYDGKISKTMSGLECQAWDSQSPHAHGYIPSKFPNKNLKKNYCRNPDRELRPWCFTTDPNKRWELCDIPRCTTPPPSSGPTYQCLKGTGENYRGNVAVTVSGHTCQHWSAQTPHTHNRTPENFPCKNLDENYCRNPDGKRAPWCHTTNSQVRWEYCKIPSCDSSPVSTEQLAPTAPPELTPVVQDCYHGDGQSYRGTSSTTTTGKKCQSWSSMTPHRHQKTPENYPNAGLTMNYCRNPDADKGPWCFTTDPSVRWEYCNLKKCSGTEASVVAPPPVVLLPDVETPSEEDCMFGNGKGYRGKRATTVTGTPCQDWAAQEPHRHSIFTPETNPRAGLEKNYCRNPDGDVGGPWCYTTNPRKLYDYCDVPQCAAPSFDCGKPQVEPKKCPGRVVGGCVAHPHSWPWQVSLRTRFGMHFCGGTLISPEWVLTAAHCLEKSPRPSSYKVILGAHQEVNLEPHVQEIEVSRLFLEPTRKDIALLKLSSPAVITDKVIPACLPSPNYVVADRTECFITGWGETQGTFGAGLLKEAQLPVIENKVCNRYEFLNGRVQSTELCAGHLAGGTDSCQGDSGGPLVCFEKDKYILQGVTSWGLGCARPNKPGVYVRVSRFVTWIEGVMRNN
Sequence of cluster 1 type streptokinase (P10520 27-440): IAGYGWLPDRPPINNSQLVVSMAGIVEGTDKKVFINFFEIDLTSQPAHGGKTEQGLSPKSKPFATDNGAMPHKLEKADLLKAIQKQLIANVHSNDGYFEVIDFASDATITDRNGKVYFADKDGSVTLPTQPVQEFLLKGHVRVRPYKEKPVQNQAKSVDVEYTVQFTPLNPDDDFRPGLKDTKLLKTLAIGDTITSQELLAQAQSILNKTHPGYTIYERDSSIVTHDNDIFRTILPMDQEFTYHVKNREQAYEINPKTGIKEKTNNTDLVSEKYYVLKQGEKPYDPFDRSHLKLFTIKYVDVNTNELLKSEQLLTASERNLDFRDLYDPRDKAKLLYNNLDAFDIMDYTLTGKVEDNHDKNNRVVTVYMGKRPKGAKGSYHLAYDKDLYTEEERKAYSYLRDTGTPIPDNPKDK

For the compound `NCCCCCC(=O)O` [EACA, ε-amino caproic acid, reference compound], the IC50 in assay [1] was more than 100 mM; in assay [2], more than 100 mM; in assay [3], 100 mM; in assay [4], more than 100 mM.
As to `NC[C@H]1CC[C@H](C(=O)O)CC1` [TXA, tranexamic acid, reference compound], the IC50 in assay [1] is 100 mM; in assay [2], more than 100 mM; in assay [4], more than 100 mM.
For the compound `CCCCC/C=C\C/C=C\C/C=C\C/C=C\CCCC(=O)O` [arachidonic acid, reference compound], the “effect on plasminogen activation” value in assay [2] and in assay [3] was “no effect” throughout.
For the compound `CC/C=C\C/C=C\C/C=C\CCCCCCCC(=O)O` [linolenic acid, reference compound], the “effect on plasminogen activation” value in assay [3] is reported as “no effect”. Further, the inhibition at 359 µM in assay [4] (setting [5]) stood at 30%.
For the compound `CCCCCCCCCCCCCC(=O)O` [myristic acid, reference compound], the “effect on plasminogen activation” value in assay [2] and in assay [3] was “no effect” throughout.
For `CCCCCCCC/C=C\CCCCCCCC(=O)O` [oleic acid], the figures for the “effect on plasminogen activation” value in assay [1] (concentrations up to 100 µg/ml (around 320–437 µM)) and in assay [3] were “not active” and “no effect”, respectively. Further, in assay [4] (setting [5]), the inhibition at 354 µM was approximately 45%.
On to `CCCCCCCCCCCCCCCC(=O)O` [palmitic acid], for which the “effect on plasminogen activation” value in assay [3] is “unspecific marginal inhibitory effects”.
In the case of `CCCCCCCCCCCCCCCCCC(=O)O` [stearic acid], the “effect on plasminogen activation” value in assay [3] is given as “unspecific marginal inhibitory effects”.

As usually defined, the IC50 is the concentration that gives 50% inhibition. Read a low IC50 as higher potency. As a reminder, the inhibition is the relative decrease from the control value, in per cent.
